The nature of series [1]: Susceptibility to non-productive metabolism (deamination) in vitro in rat whole blood or plasma. Type of series: in vitro ADME. As to the method: The susceptibility of 2′-β-C-methyladenosine, and its 2′,3′-carbonate prodrugs to non-productive metabolism was evaluated in vitro and in vivo. […] Aliquots of the blood and plasma samples were removed periodically and extracted with perchloric acid and methanol, respectively, and then centrifuged. The acidic supernatants were neutralized with potassium carbonate and recentrifuged. […] Analysis (50 μL) was performed on an Agilent Zorbax SB-Aq column (4.6×150 mm) eluted with a gradient consisting of a mixture of Buffer A (20 mM potassium phosphate pH 6.2) and Buffer B (acetonitrile) (0-10 min, 0-10%; 10-20 min, 10-80%, 20-21 min, 80-0%; 21-30 min, 0-0%) and UV absorbance monitoring at 265 nm. The flow rate was 1.5 mL/min and the column temperature was set at 40° C. Concentrations of metabolite were determined from calibration curves prepared by spiking known amounts of standards to plasma and processing as before.

For another series, the system named is HCV. As to the kind of experiment: Antiviral activity in HCV-infected human liver slice assay. The format is cell-based, hepatitis C virus. The conditions noted are these: HCV RNA in culture media. The method, then:
The effect of various compounds on HCV replication in human liver tissue was evaluated as described below.
Liver from a brain-dead HCV antibody-positive human patient was perfused with ice-cold Viaspan (Dupont Pharmaceutical) preservation solution and received on ice in Viaspan.
Precision-cut liver slices of ˜200-250 μm thickness and […] diameter were prepared and cultured in Waymouth's cell culture medium (Gibco, Inc.) that was supplemented with 10% fetal bovine serum and 10 mL/L Fungi-Bact at 37° C., and gassed with carbogen (95% O2, 5% CO2) at 0.75 liters/min. Tissue slices were maintained in culture for 72 h. Cell culture medium containing test compound in solution was changed on a daily basis.
At appropriate times of liver slice incubation, liver slices and medium were collected for analysis of HCV RNA (tissue and medium) and nucleotide levels (NTP). All collected media and tissue slices were maintained in liquid N2 until analysis.
Medium and tissue samples were analyzed for HCV RNA levels according to published procedures (Bonacini et. al., 1999) which utilize an automated, multicycle, polymerase chain reaction (PCR)-based technique. This assay has a lower limit of detection for HCV RNA of 100 viral copies/ml. Frozen liver slices were disrupted by using a combination of ultrasound probe sonication, Branson Sonifier 450 (Branson Ultrasonics, Danbury, Conn.) and homogenization using a Dounce conical pestle in 200 μls of 10% (v/v) perchloric acid (PCA). After a 5 min centrifugation at 2,500×g, the supernatants were neutralized using 3 M KOH/3 M KHCO3 and mixed thoroughly. The neutralized samples were centrifuged at 2,500 g for 5 min and NTP levels were determined by ion exchange phase HPLC (Hewlett Packard 1050) using a Whatman Partisil 5 SAX (5 μm, 4.6×250 mm) column. Samples (50 μL) were injected onto the column in 70% 10 mM ammonium phosphate buffer and 30% 1 M ammonium phosphate buffer, both at pH 3.5 and containing 6% ethanol. Nucleoside triphosphates were eluted from the column using a linear gradient to 80% 1 M ammonium phosphate pH 3.5/6% ethanol buffer, at a flow rate of 1.25 mL/min and detected by UV absorbance (254 nm).

A short description of series [2]: Oral bioavailability in the rat based on liver nucleotide concentrations. The method, then:
At pre-specified times of 20 min, 1, 3, 5, 8, 16, and 24 hrs post dose, liver samples (˜1 g) were collected by freeze-clamping and homogenized in 3 volumes of ice-cold 60% acetonitrile. Following centrifugation to clarify the homogenate, aliquots of the supernatants (100 μL) were evaporated to dryness on a Savant Speed-Vac Plus (1 hr, room temperature). The resulting dried residue was reconstituted with 100 μL of mobile phase and then analyzed for nucleotides by an LC-MS/MS method as described below.
The reconstituted extracts in mobile phase A (20 mM N,N-dimethylhexylamine and 10 mM propionic acid in 20% methanol) were analyzed by LC-MS/MS (Applied Biosystems, API 4000) equipped with an Agilent 1100 binary pump and a LEAP injector. […] Where possible, the quantitative analysis of liver NMP, NDP, and NTP were calculated based on a calibration curve generated from their respective standards (0.01-30 μM).
The area under the curve (AUC) to the last measurable time point were calculated by trapezoidal summation of the liver concentration-time profile of total nucleotides and NTP. The OBAV was determined by dividing the dose-normalized AUC following oral administration by the AUC following IV dosing.

The conditions of series [3]: rat, in vivo. The method, then: Analog and Its 2′,3′-Carbonate Prodrugs The liver selectivity of an antiviral nucleoside, 2′-B-C-methyladenosine, and its 2′,3′-carbonate prodrugs was evaluated in the rat by comparing liver nucleotide concentrations to levels of a major metabolite in the plasma or to concentrations of extrahepatic nucleotides. An elevated liver selectivity index is an indication of improved liver targeting of the antiviral agent and reduced exposure to other organs that may be potential targets of toxicity.
At pre-specified times of 20 min, 1, 3, 5, 8, 16, and 24 hrs post dose, liver, heart, and thigh muscle samples (˜1 g) were harvested by freeze-clamping and homogenized in 3 volumes of ice-cold acetonitrile. Following centrifugation to clarify the homogenate, aliquots of the tissue extracts were evaporated to dryness on a Savant Speed-Vac Plus (1 hr, room temperature). The resulting dried residue was reconstituted with 100 μL of mobile phase and then analyzed for nucleotides by an LC-MS/MS method as described in Example I. In addition to solid tissue, blood was collected in heparin tubes at the pre-specified times and centrifuged to obtain plasma. The plasma samples (100 μL) were extracted with 1.5 volumes of methanol and centrifuged for 20 min at top speed on a microfuge. Plasma concentrations of a major metabolite of 2′-B-C-methyladenosine, i.e., 2′-B-C-methylinosine, were determined by LC-UV as described in Example E.
The area under the curve (AUC) to the last measurable time point was calculated by trapezoidal summation of the liver, heart, and muscle concentration-time profile of total nucleotides and NTP and of the plasma concentration-time profile of the major metabolite 2′-B-C-methylinosine. The liver selectivity index was determined by two methods: (1) dividing liver NTP AUC by heart nucleotide AUC and (2) dividing liver NTP AUC by plasma 2′-3-C-methylinosine AUC.

The nature of series [4]: Kinetics of conversion of HepDirect-carbonate prodrugs to nucleoside monophosphates by human liver microsomes. The format is in vitro ADME. As to conditions: activation to NMP, Lineweaver-Burke plot. The method, then:
The kinetics of activation of prodrug analogues to NMP were evaluated in the microsomal fraction of human liver.
Human liver microsomes were purchased from In Vitro Technologies. The study was performed at 2 mg/mL human liver microsomes, 100 mM KH2PO4, 10 mM glutathione, 0-250 μM compound, and 2 mM NADPH for 0-7.5 min. in an Eppendorf Thermomixer 5436 (37° C., 850 rpm). The reactions were initiated by addition of NADPH following a 2-min. preincubation. Reactions were quenched with 60% methanol at 0, 2.5, 5, and 7.5 min. The resulting extracts were clarified by centrifugation at 14,000 rpm in an Eppendorf microfuge (20 min.). The supernatants (200 μL) were evaporated under vacuum and, heat to dryness. The dried residue was reconstituted with 200 μL of water and the mixture was centrifuged for 10 min at 14,000 rpm. […] NMP was detected by using MS/MS mode (M^−/78.8) and quantified based on comparison to a standard of lamivudine monophosphate. Kinetic parameters were determined from a Lineweaver-Burke plot of the data with use of SigmaPlot 9.0 software.
(Microsomes from liver hold many membrane-bound enzymes, among them those of drug oxidation.)

Series [5] is described as follows: Susceptibility to non-productive metabolism in vivo: 2′-β-C-methylinosine AUC in rat plasma and tissues. Details: species or system male Sprague-Dawley rats. As to conditions: male, Sprague-Dawley. As to the method: The susceptibility of 2′-β-C-methyladenosine, and its 2′,3′-carbonate prodrugs to non-productive metabolism was evaluated in vitro and in vivo. […] Also at the pre-specified times, blood (heparinized) was collected from the vena cava and centrifuged briefly to obtain plasma. […] The supernatant was then analysis for deaminated products and other metabolites by LC-UV as described above.

Where two headings read alike, the source gives them in different places.

On to “2′-β-C-methyladenosine [reference compound]”, for which the “deaminated product (2′-β-C-methylinosine) after incubation in rat whole blood in vitro” value (“deaminated product … in vitro” for short) in series [1] (rat whole blood, 37° C.) is on record as 2′-β-C-methylinosine was observed. In addition, the “% decrease in viral RNA relative to untreated liver slices” value in the series with HCV (0.25 μM) is 0%; in the series with HCV (2.5 μM) it was 83%; in the series on HCV (25 μM) it was 94%; in the series with HCV (100 μM) it was 92%. Further, the “ORAL BIOAVAILABILITY” value in series [2] (dose-normalized liver nucleotide AUC oral / IV) is listed as under 5%; in series [2] (dose-normalized liver nucleotide AUC oral / IV, listed as 2′-β-C-Methyladenosine) it was 2%. The “Liver NTP AUC” value in series [3] was found to be 15. Moreover, the “Plasma 2′-β-C-Methylinosine AUC” value in series [3] turned out to be 11. Besides, the “Plasma concentrations of the main metabolite, 2′-B-C-methylinosine” value in series [3] is listed as “detectable”. Also, the “concentrations of nucleotides of 2′-methyladenosine in heart and muscle tissue” value in series [3] was “measurable in heart and muscle tissue”.
What is called Km is the concentration of substrate that gives half-maximal velocity. The term Vmax denotes the top rate of the reaction or transport when substrate is in excess. Regarding `C[C@@]12OC(=O)O[C@@H]1[C@@H](COP1(=O)OCC[C@@H](c3ccncc3)O1)O[C@H]2n1cnc2c(N)ncnc21` (some centres unmarked) [Compound 30.1], in series [4], the Michaelis-Menten constant (Km) worked out at 64 µM and the Vmax was 0.36 nmol/min/mg. Besides, the “deaminated product … in vitro” value in series [1] (rat) was “no deaminated products were detected”. For the same molecule, the “deaminated product 2′-B-C-methylinosine in plasma, liver, heart, and muscle tissue” value in series [5] was “no or only trace levels of the deaminated product were measurable”. Also, in series [3] (male, Sprague-Dawley), the “Heart Nucleotides AUC” value was found to be 2.6, the “Liver NTP AUC” value came out at 841 and the “Plasma 2′-β-C-Methylinosine AUC” value was under 7.1.
As for `CC1(C)C[C@@H](c2cccc(F)c2F)OP(=O)(OC[C@H]2O[C@@H](n3cnc4c(N)ncnc43)[C@]3(C)OC(=O)O[C@H]23)O1` (stereo partly drawn) [Compound 30.10, cis-5′-O-[6-(2,3-Difluorophenyl)-4,4-dimethyl-2-oxo-1,3,2-dioxaphosphorinan-2-y]-2′,3′-carbonyl-2′-C-methyl-adenosine], in series [4], the Km was determined as 44.5 µM and the Vmax is 0.12 nmol/min/mg. The “deaminated product … in vitro” value in series [1] (rat) was “no deaminated products were detected”. Further, the “deaminated product 2′-B-C-methylinosine in plasma, liver, heart, and muscle tissue” value in series [5] is given as “no or only trace levels of the deaminated product were measurable”. Also, the “ORAL BIOAVAILABILITY” value in series [2] (male, Sprague-Dawley, in vivo) was 21%. Besides, in series [3] (male, Sprague-Dawley), the “Heart Nucleotides AUC” value is on record as under 2.8 and the “Plasma 2′-β-C-Methylinosine AUC” value is given as under 7.1.
A word on the melting point: it is the temperature, or range, at which the solid turns liquid. As for `C[C@@]1(O)[C@H](O)[C@@H](COP2(=O)OCC[C@H](c3cccc(Cl)c3)O2)O[C@H]1n1ccc2c(N)ncnc21` (stereo partly drawn) [Example 16.1, 4-Amino-7-(cis-5′-O-[4-(3-chlorophenyl)-2-oxo-1,3,2-dioxaphosphorinan-2-yl]-2′-C-methyl-beta-D-ribofuranosyl)-7H-pyrrolo[2,3-d]pyrimidine], the melting point was 138 to 141 °C.
